Results reported in PubChem BioAssay (NCI).
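Following 48 hours of exposure in 96-well plates, responses at five concentrations were used to interpolate endpoints linearly. TGI denotes the concentration required for complete inhibition of growth.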

tested on: HL-60(TB) leukemia; assay: growth of human tumour cells (NCI), 48 h

SMILES	TGI
Nc1ncnc2c1ccn2C/C=C\CO	> 100 µM
Cc1c([N+](=O)[O-])ccc2c(NCCCN(C)C)ccnc12	> 100 µM
N#Cc1nc2ccccc2nc1N1CCN(c2ccc([N+](=O)[O-])cc2)CC1	> 100 µM
N=C1/C(=C/c2ccc(F)cc2)C(=O)N=C2SC=NN12	> 100 µM
COC(=O)CC(C#N)(OP1(=O)OC(c2ccccc2)C(C)N1C)c1ccccc1 (configuration not stated)	58 µM
CN1CCN(C(=O)CCNC(=O)Cc2ccc(C(=O)c3ccccc3)cc2)CC1	> 100 µM
CC(=O)c1cccc(NC(=O)C(=O)NNc2n[nH]c(=S)n2N)c1	32.1 µM
O=c1cc(N2CCOCC2)[nH]c(=O)n1-c1ccc(F)cc1	> 100 µM
O=C(O)CC1NC(/C(=C/c2ccccc2)NC(=O)c2ccccc2)OC1=O (configuration not stated)	38 µM
COCC1OC(Sc2ccccc2)C(O)C(OC)C1OC (configuration not stated)	> 100 µM
CCCn1c2ccccc2c2ccc3c(c21)C(=O)C=CC3=O	> 2.27 µM
C=C(CCC/C(C)=C/C=C/[C@]1(C)CCCc2ccoc21)CC(=O)O	> 100 µM
O=C1C2CC=CCC2C(=O)N1n1c(Cc2ccc(Cl)cc2)n[nH]c1=O (configuration not stated)	> 100 µM
N#Cc1c(-c2ccc(Cl)cc2)c2c([nH]c1=O)-c1ccccc1SC2	56.7 µM

tested on: HOP-62 NSCLC; assay: growth of human tumour cells (NCI), 48 h

SMILES	TGI
C=C1C(=O)C[C@H]2C(=C)C(=O)O[C@@H]2C2C1CC[C@@]2(C)O (some centres not stated)	> 100 µM
O=C(NC(Cc1c[nH]c2ccccc12)C(=O)Nc1ccc(Br)cc1)OCc1ccccc1 (configuration not stated)	23.7 µM
COC(=O)C1=C(C)NC2=C(C(=O)c3ccccc32)C1c1cn(-c2ccccc2)nc1-c1ccccc1 (configuration not stated)	> 100 µM
Cc1cc(C)n2nc3nc(N)c(C#N)c(-c4ccccc4)c3c2n1	> 100 µM
CCCCCCCCCC1(N=[N+]=[N-])C(=O)c2ccccc2N(C)C1=O (configuration not stated)	> 100 µM
CN(Cc1cnc2nc(N)nc(N)c2n1)c1ccc(C(=O)NC(CCC(=O)NCCC(P(=O)(O)O)P(=O)(O)O)C(=O)O)cc1 (configuration not stated)	> 100 µM
C[N+](CCCl)(CCCl)Cc1cccc2cccc([N+](=O)[O-])c12	> 100 µM
O=C1NC(=O)C(c2c[nH]c3ccccc23)=C1c1cnc[nH]1	> 100 µM
CC(=O)O[C@H]1C[C@H]2[C@@H](OC(C)=O)/C=C3\C[C@](C)(C(=O)[C@H](O)C(=C1C)C2(C)C)[C@@H](O)C[C@@H]3OC(=O)[C@H](O)[C@H](c1ccccc1)N(C)C	> 100 µM
Nc1ncnc2c1ccn2C/C=C\CO	> 100 µM
Cc1c([N+](=O)[O-])ccc2c(NCCCN(C)C)ccnc12	> 100 µM
N#Cc1nc2ccccc2nc1N1CCN(c2ccc([N+](=O)[O-])cc2)CC1	> 100 µM
N=C1/C(=C/c2ccc(F)cc2)C(=O)N=C2SC=NN12	> 100 µM
COC(=O)CC(C#N)(OP1(=O)OC(c2ccccc2)C(C)N1C)c1ccccc1 (configuration not stated)	> 100 µM
CN1CCN(C(=O)CCNC(=O)Cc2ccc(C(=O)c3ccccc3)cc2)CC1	> 100 µM
CC(=O)c1cccc(NC(=O)C(=O)NNc2n[nH]c(=S)n2N)c1	29.3 µM
O=c1cc(N2CCOCC2)[nH]c(=O)n1-c1ccc(F)cc1	> 100 µM
O=C(O)CC1NC(/C(=C/c2ccccc2)NC(=O)c2ccccc2)OC1=O (configuration not stated)	37.2 µM
COCC1OC(Sc2ccccc2)C(O)C(OC)C1OC (configuration not stated)	> 100 µM
CCCn1c2ccccc2c2ccc3c(c21)C(=O)C=CC3=O	> 10 µM
C=C(CCC/C(C)=C/C=C/[C@]1(C)CCCc2ccoc21)CC(=O)O	> 100 µM
O=C1C2CC=CCC2C(=O)N1n1c(Cc2ccc(Cl)cc2)n[nH]c1=O (configuration not stated)	> 100 µM
N#Cc1c(-c2ccc(Cl)cc2)c2c([nH]c1=O)-c1ccccc1SC2	> 100 µM

tested on: MALME-3M melanoma; assay: growth of human tumour cells (NCI), 48 h

SMILES	TGI
C=C1C(=O)C[C@H]2C(=C)C(=O)O[C@@H]2C2C1CC[C@@]2(C)O (some centres not stated)	44.9 µM
O=C(NC(Cc1c[nH]c2ccccc12)C(=O)Nc1ccc(Br)cc1)OCc1ccccc1 (configuration not stated)	34.1 µM
COC(=O)C1=C(C)NC2=C(C(=O)c3ccccc32)C1c1cn(-c2ccccc2)nc1-c1ccccc1 (configuration not stated)	> 100 µM
Cc1cc(C)n2nc3nc(N)c(C#N)c(-c4ccccc4)c3c2n1	> 100 µM
CCCCCCCCCC1(N=[N+]=[N-])C(=O)c2ccccc2N(C)C1=O (configuration not stated)	70.2 µM
CN(Cc1cnc2nc(N)nc(N)c2n1)c1ccc(C(=O)NC(CCC(=O)NCCC(P(=O)(O)O)P(=O)(O)O)C(=O)O)cc1 (configuration not stated)	> 100 µM
C[N+](CCCl)(CCCl)Cc1cccc2cccc([N+](=O)[O-])c12	> 100 µM
O=C1NC(=O)C(c2c[nH]c3ccccc23)=C1c1cnc[nH]1	> 100 µM
CC(=O)O[C@H]1C[C@H]2[C@@H](OC(C)=O)/C=C3\C[C@](C)(C(=O)[C@H](O)C(=C1C)C2(C)C)[C@@H](O)C[C@@H]3OC(=O)[C@H](O)[C@H](c1ccccc1)N(C)C	> 100 µM
Nc1ncnc2c1ccn2C/C=C\CO	> 100 µM
Cc1c([N+](=O)[O-])ccc2c(NCCCN(C)C)ccnc12	31.7 µM
N#Cc1nc2ccccc2nc1N1CCN(c2ccc([N+](=O)[O-])cc2)CC1	> 100 µM
N=C1/C(=C/c2ccc(F)cc2)C(=O)N=C2SC=NN12	> 100 µM
COC(=O)CC(C#N)(OP1(=O)OC(c2ccccc2)C(C)N1C)c1ccccc1 (configuration not stated)	> 100 µM
CN1CCN(C(=O)CCNC(=O)Cc2ccc(C(=O)c3ccccc3)cc2)CC1	> 100 µM
CC(=O)c1cccc(NC(=O)C(=O)NNc2n[nH]c(=S)n2N)c1	5.18 µM
O=c1cc(N2CCOCC2)[nH]c(=O)n1-c1ccc(F)cc1	> 100 µM
O=C(O)CC1NC(/C(=C/c2ccccc2)NC(=O)c2ccccc2)OC1=O (configuration not stated)	> 100 µM
COCC1OC(Sc2ccccc2)C(O)C(OC)C1OC (configuration not stated)	> 100 µM
CCCn1c2ccccc2c2ccc3c(c21)C(=O)C=CC3=O	4.02 µM
